Experiment [1] addresses T1, PR (Rattus norvegicus, UniProt Q63449).
T1 construct: from tissue; host or cells: whole animal: pregnant, ovariectomized rats
T1 sequence (Q63449 1-923): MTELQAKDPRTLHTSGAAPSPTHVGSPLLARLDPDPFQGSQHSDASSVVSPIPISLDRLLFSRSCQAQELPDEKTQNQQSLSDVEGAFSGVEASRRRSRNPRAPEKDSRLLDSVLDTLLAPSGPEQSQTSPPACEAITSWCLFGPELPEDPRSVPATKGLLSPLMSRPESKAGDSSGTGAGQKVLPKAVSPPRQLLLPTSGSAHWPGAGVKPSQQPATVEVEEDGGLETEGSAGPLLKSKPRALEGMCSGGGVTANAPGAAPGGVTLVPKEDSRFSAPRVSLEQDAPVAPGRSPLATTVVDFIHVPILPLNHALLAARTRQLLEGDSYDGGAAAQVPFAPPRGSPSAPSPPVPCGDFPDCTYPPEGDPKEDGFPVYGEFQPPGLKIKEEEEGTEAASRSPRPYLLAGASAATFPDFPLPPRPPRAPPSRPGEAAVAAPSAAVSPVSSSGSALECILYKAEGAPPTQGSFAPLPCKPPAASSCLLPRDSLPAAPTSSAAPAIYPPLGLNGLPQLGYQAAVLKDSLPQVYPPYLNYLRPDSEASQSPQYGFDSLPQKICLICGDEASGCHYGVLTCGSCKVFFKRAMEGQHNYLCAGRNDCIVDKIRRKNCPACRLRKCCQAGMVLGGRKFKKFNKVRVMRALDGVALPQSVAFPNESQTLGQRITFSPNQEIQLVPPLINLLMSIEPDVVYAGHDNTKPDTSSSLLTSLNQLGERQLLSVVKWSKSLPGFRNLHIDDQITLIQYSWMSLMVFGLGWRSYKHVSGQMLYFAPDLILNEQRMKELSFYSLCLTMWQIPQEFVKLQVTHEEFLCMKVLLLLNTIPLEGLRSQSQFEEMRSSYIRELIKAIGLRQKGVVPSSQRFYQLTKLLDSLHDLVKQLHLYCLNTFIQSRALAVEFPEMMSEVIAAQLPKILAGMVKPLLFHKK
As to the kind of experiment: maintenance of pregnancy test on the rat. Type of experiment: in vivo. As to conditions: ovarectomized pregnant rats; for PR in vivo ED50 (pregnancy-maintaining dose): s.c. once daily from day 8 to day 15 or 21, with oestrone 5 μg/kg/day. The source says: Carrying out the maintenance of pregnancy test on the rat:
In pregnant rats, the removal of the corpora lutea or oophorectomy induces an abortion. By means of the exogenous administration of progestins (gestagens) in combination with a suitable dose of an oestrogen, the maintenance of pregnancy is possible. The maintenance of pregnancy test on ovarectomized rats serves for the determination of the peripheral gestagenic activity of a compound.
Rats were paired overnight during proestrus. Pairing was checked on the morning of the following day by the appraisal of a vaginal smear. The presence of the sperm was evaluated here as day 1 of a commencing pregnancy. On day 8 of the pregnancy, the animals were ovarectomized under ether anaesthesia. The treatment with test compound and exogenous oestrogen (oestrone, 5 μg/kg/day) was carried out subcutaneously once daily from day 8 to day 15 or day 21 of the pregnancy. The first administration on day 8 was carried out two hours before oophorectomy. Intact control animals were given exclusively vehicle.
At the end of the experiment (day 15 or day 21), the animals were sacrificed under a CO2 atmosphere, and live foetuses (foetuses having a beating heart) and implantation sites (early resorptions and dead foetuses including autolysis and atrophic placentas) were counted in both uterine horns. On day 22, it was moreover possible to examine foetuses for malformations. In uteri without foetuses or implantation sites, the number of nidation sites was determined by staining with 10% strength ammonium sulphide solution. The maintenance of pregnancy rate was calculated as the quotient of the number of living foetuses and the total number of nidation sites (both resorbed and dead foetuses and nidation sites). For drospirenone, this value is 3.5 mg/kg/day.

In experiment [2] the target is T2, mineralcorticoid receptor (Homo sapiens, UniProt P08235).
T2 sequence (P08235 1-984): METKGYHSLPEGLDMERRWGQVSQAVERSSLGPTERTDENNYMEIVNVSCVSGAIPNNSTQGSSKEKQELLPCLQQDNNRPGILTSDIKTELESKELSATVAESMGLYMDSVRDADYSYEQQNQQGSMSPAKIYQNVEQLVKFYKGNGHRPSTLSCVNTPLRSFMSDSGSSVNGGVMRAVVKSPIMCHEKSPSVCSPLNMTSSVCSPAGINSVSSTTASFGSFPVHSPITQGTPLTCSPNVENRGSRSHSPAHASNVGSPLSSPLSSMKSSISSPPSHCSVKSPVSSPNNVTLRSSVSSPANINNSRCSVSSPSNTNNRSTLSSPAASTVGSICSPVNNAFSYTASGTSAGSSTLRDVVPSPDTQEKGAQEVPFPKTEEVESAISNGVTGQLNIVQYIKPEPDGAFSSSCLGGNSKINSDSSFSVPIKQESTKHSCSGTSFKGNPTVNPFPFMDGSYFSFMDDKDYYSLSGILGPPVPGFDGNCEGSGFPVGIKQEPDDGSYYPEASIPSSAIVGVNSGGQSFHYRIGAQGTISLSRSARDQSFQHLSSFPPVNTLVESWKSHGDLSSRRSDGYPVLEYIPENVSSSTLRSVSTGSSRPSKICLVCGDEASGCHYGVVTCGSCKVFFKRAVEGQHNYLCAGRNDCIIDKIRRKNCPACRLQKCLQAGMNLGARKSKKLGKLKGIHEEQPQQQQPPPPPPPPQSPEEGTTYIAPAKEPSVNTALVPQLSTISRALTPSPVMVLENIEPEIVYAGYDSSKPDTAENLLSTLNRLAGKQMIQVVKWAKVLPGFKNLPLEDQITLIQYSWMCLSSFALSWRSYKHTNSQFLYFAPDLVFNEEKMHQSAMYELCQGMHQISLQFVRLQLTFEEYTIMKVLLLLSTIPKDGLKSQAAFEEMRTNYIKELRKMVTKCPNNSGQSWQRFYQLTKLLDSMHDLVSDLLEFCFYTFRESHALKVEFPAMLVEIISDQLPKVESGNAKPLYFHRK
Description: MR antagonism luciferase reporter cell line assay. Type of experiment: cell-based. Here is the method:
The derivatives according to the invention having the general chemical formula have a very strong gestagenic activity. […] They should therefore have in vivo potassium-retaining, natriuretic (antimeralcorticoid) action. These properties were determined using the test described below:
For the culturing of the cells used for the assay, the culture medium used was DMEM (Dulbecco's Modified Eagle Medium: […] of glucose; PAA, #E15-009) with 10% FCS (Biochrom, S0115, batch #615B), 4 mM L-glutamine, 1% penicillin/streptomycin, 1 mg/ml of G418 and 0.5 μg/ml of puromycin.
Reporter cell lines were grown in a density of 4×10^4 cells per hollow in white, nontransparent tissue culture plates in each case having 96 hollows (PerkinElmer, #P12-106-017) and kept in 6% DCC-FCS (activated carbon-treated serum, for the removal of interfering components contained in the serum). The compounds to be investigated were added eight days later, and the cells were incubated with the compounds for 16 hours. The experiments were carried out in triplicate. At the end of the incubation, the effector-containing medium was removed and replaced by lysis buffer. After luciferase assay substrate (promega, #E1501) had been added, the plates containing the 96 hollows were then introduced into a microplate luminometer (Pherastar, BMG labtech), and the luminescence was measured. The […] values were evaluated using software for the calculation of dose-activity relationships.

Setting [3] is: reporter cell lines, 16 hours incubation, luciferase luminescence.
[4] abbreviates: reporter cell lines, 16 hours incubation, luciferase luminescence, read-out: MR Antagonism IC50.

Like-named read-outs stand apart in the source and are kept apart here.

The term IC50 denotes the point on the concentration scale where inhibition reaches its midpoint.

For the molecule `C[C@]12CC[C@H]3[C@@H](CC4(CC4)C4=CC(=O)CC[C@@]43C)[C@@H]1CC[C@@H]2C#N`, the “PR in vivo ED50 (pregnancy-maintaining dose)” value (shortened to “PR in vivo ED50”) in experiment [1] worked out at 25.0 mg/kg/d s.c. The molecule also returned an IC50 in experiment [2] of 20 nM. The “MR Antagonism activity [% of the maximum effect]” value in experiment [2] (setting [3]) is given as 99.16 % of the maximum effect.

On to `C[C@]12CC[C@H]3[C@@H]([C@H]4C[C@H]4C4=CC(=O)CC[C@@]43C)[C@@H]1[C@@H]1C[C@@H]1[C@@H]2C#N` [6β,7β-15β,16β-Bismethylene-17β-cyanoandrost-4-en-3-one], for which the “PR in vivo ED50” value in experiment [1] turned out to be 7.3 mg/kg/d s.c. In addition, in experiment [2], the IC50 came out at 4.7 nM. The “MR Antagonism activity [% of the maximum effect]” value in experiment [2] (setting [3]) is given as 98.06 % of the maximum effect.

In the case of `C=CC[C@]1(C#N)CC[C@H]2[C@@H]3CCC4=CC(=O)CC[C@]4(C)[C@H]3CC[C@@]21C` [17α-Allyl-17β-cyanoandrost-4-en-3-one], the “MR Antagonism activity [% of the maximum effect]” value in experiment [2] (setting [3]) is 65.30 % of the maximum effect. Also, in experiment [2] (setting [4]), the IC50 amounted to 990 nM.

On to `C[C@]12CCC(=O)C=C1CC[C@H]1[C@@H]3[C@@H]4C[C@@H]4[C@](C)(C#N)[C@@]3(C)CC[C@@H]12` [17β-Cyano-17α-methyl-15β,16β-methyleneandrost-4-en-3-one], for which, in experiment [1], the “PR in vivo ED50” value came to 10.0 mg/kg/d s.c. The “MR Antagonism activity [% of the maximum effect]” value in experiment [2] (setting [3]) is recorded as 98.30 % of the maximum effect. Besides, the IC50 in experiment [2] (setting [4]) is 42 nM.

Turning to `C[C@]12CCC(=O)C=C1[C@@H]1C[C@@H]1[C@H]1[C@@H]3[C@@H]4C[C@@H]4[C@@]4(CCC(=O)O4)[C@@]3(C)CC[C@@H]12` [drospirenone, 6β,7β-15β,16β-dimethylene-3-oxo-17-pregn-4-ene-21,17β-carbolactone, reference compound], the “pregnancy-maintaining dose (ED50)” value in experiment [1] (subcutaneous, with oestrone 5 μg/kg/day) is given as 3.5 mg/kg/day.

These data come from patent US20100292184A1, “17BETA-CYANO-19-ANDROST-4-ENE DERIVATIVE, ITS USE AND MEDICAMENTS COMPRISING THE DERIVATIVE” (BAYER SCHERING PHARMA AG, priority 2007, published 2010).
